Measured values from PubChem BioAssay AID2060622 (Molecular Pharmacology Branch, DTP, NCI, 2025).
“And” between values parts separate entries of the source, which are not always exact repeats. Identical values can stand only once. Each block holds one compound with its values, some of them ahead of it.

System: 242566-281-R-J2-PDC complex spheroid viability
Assay: Anticancer human tumor 242566-281-R-J2-PDC patient-derived pancreatic carcinoma cell line growth inhibition [CLK]
Settings: for viability, T/C: stronger effect = lower value
In short: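 Patient-derived tumor cells grown as complex spheroids with HUVEC endothelial cells and mesenchymal stem cells, treated with drug combinations. Concentrations descend in half-log steps from near clinical Cmax, or from 10 microM if Cmax unknown.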

[1] = curve of first compound, second compound 0.0316 µM
[2] = curve of first compound, second compound 0.1 µM
[3] = curve of first compound, second compound 0.316 µM
[4] = curve of first compound, second compound 1 µM
[5] = curve of first compound, second compound 3.16 µM
[6] = curve of first compound, second compound 10 µM
[7] = second compound 0.0316 µM, first compound 0.0316 µM
[8] = second compound 0.0316 µM, first compound 0.1 µM
[9] = second compound 0.0316 µM, first compound 0.316 µM
[10] = second compound 0.0316 µM, first compound 1 µM
[11] = second compound 0.0316 µM, first compound 3.16 µM
[12] = second compound 0.0316 µM, first compound 10 µM
[13] = second compound 0.1 µM, first compound 0.0316 µM
[14] = second compound 0.1 µM, first compound 0.1 µM
[15] = second compound 0.1 µM, first compound 0.316 µM
[16] = second compound 0.1 µM, first compound 1 µM
[17] = second compound 0.1 µM, first compound 3.16 µM
[18] = second compound 0.1 µM, first compound 10 µM
[19] = second compound 0.316 µM, first compound 0.0316 µM
[20] = second compound 0.316 µM, first compound 0.1 µM
[21] = second compound 0.316 µM, first compound 0.316 µM
[22] = second compound 0.316 µM, first compound 1 µM
[23] = second compound 0.316 µM, first compound 3.16 µM
[24] = second compound 0.316 µM, first compound 10 µM
[25] = second compound 1 µM, first compound 0.0316 µM
[26] = second compound 1 µM, first compound 0.1 µM
[27] = second compound 1 µM, first compound 0.316 µM
[28] = second compound 1 µM, first compound 1 µM
[29] = second compound 1 µM, first compound 3.16 µM
[30] = second compound 1 µM, first compound 10 µM
[31] = second compound 3.16 µM, first compound 0.0316 µM
[32] = second compound 3.16 µM, first compound 0.1 µM
[33] = second compound 3.16 µM, first compound 0.316 µM
[34] = second compound 3.16 µM, first compound 1 µM
[35] = second compound 3.16 µM, first compound 3.16 µM
[36] = second compound 3.16 µM, first compound 10 µM
[37] = second compound 10 µM, first compound 0.0316 µM
[38] = second compound 10 µM, first compound 0.1 µM
[39] = second compound 10 µM, first compound 0.316 µM
[40] = second compound 10 µM, first compound 1 µM
[41] = second compound 10 µM, first compound 3.16 µM
[42] = second compound 10 µM, first compound 10 µM
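Note: spheroids exposed to compounds for 7 days before readout.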
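Throughout, for viability, T/C: 100% = DMSO vehicle control wells.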

SMILES: CC1COCCN1c1cc(C2(S(C)(=N)=O)CC2)nc(-c2ccnc3[nH]ccc23)n1 (centres undefined) + CN1CCN(c2cc(C(=O)Nc3cc4cc(-c5cnn(C)c5)ccc4cn3)ccn2)CC1
IC50 [1]: 6190 nM
IC50 [2]: 4500 nM
IC50 [3]: < 31.6 nM
IC50 [4]: < 31.6 nM
IC50 [5]: < 31.6 nM
IC50 [6]: < 31.6 nM
viability, T/C [7]: 119%
viability, T/C [8]: 103%
viability, T/C [9]: 97%
viability, T/C [10]: 104%
viability, T/C [11]: 73.8%
viability, T/C [12]: 31.6%
viability, T/C [13]: 103%
viability, T/C [14]: 97.8%
viability, T/C [15]: 97.3%
viability, T/C [16]: 83.1%
viability, T/C [17]: 62.6%
viability, T/C [18]: 22.6%
viability, T/C [19]: 36.3%
viability, T/C [20]: 28.3%
viability, T/C [21]: 31.2%
viability, T/C [22]: 20.4%
viability, T/C [23]: 17.5%
viability, T/C [24]: 8.72%
viability, T/C [25]: 4.95%
viability, T/C [26]: 4.97%
viability, T/C [27]: 4.82%
viability, T/C [28]: 5.18%
viability, T/C [29]: 5.87%
viability, T/C [30]: 6.94%
viability, T/C [31]: 7.02%
viability, T/C [32]: 7.62%
viability, T/C [33]: 8.37%
viability, T/C [34]: 7.12%
viability, T/C [35]: 8.01%
viability, T/C [36]: 9.37%
viability, T/C [37]: 2.02%
viability, T/C [38]: 1.85%
viability, T/C [39]: 2.1%
viability, T/C [40]: 1.7%
viability, T/C [41]: 1.8%
viability, T/C [42]: 1.35%

SMILES: C=CC(=O)Nc1cc(Nc2nccc(-c3cn(C)c4ccccc34)n2)c(OC)cc1N(C)CCN(C)C + CN1CCN(c2cc(C(=O)Nc3cc4cc(-c5cnn(C)c5)ccc4cn3)ccn2)CC1
IC50 [1]: > 300 nM
IC50 [2]: > 300 nM
IC50 [3]: < 0.949 nM
IC50 [4]: < 0.949 nM
IC50 [5]: < 0.949 nM
IC50 [6]: < 0.949 nM
viability, T/C (second compound 0.0316 µM, first compound 0.000949 µM): 92.7%
viability, T/C (second compound 0.0316 µM, first compound 0.003 µM): 103%
viability, T/C (second compound 0.0316 µM, first compound 0.00949 µM): 91.8%
viability, T/C (second compound 0.0316 µM, first compound 0.03 µM): 96.7%
viability, T/C (second compound 0.0316 µM, first compound 0.0949 µM): 95.1%
viability, T/C (second compound 0.0316 µM, first compound 0.3 µM): 71.8%
viability, T/C (second compound 0.1 µM, first compound 0.000949 µM): 102%
viability, T/C (second compound 0.1 µM, first compound 0.003 µM): 85.8%
viability, T/C (second compound 0.1 µM, first compound 0.00949 µM): 84.2%
viability, T/C (second compound 0.1 µM, first compound 0.03 µM): 73.6%
viability, T/C (second compound 0.1 µM, first compound 0.0949 µM): 79.8%
viability, T/C (second compound 0.1 µM, first compound 0.3 µM): 62.9%
viability, T/C (second compound 0.316 µM, first compound 0.000949 µM): 32.1%
viability, T/C (second compound 0.316 µM, first compound 0.003 µM): 33.7%
viability, T/C (second compound 0.316 µM, first compound 0.00949 µM): 27.7%
viability, T/C (second compound 0.316 µM, first compound 0.03 µM): 23%
viability, T/C (second compound 0.316 µM, first compound 0.0949 µM): 25.2%
viability, T/C (second compound 0.316 µM, first compound 0.3 µM): 20.1%
viability, T/C (second compound 1 µM, first compound 0.000949 µM): 4.67%
viability, T/C (second compound 1 µM, first compound 0.003 µM): 4.02%
viability, T/C (second compound 1 µM, first compound 0.00949 µM): 4.33%
viability, T/C (second compound 1 µM, first compound 0.03 µM): 3.28%
viability, T/C (second compound 1 µM, first compound 0.0949 µM): 2.72%
viability, T/C (second compound 1 µM, first compound 0.3 µM): 2.12%
viability, T/C (second compound 3.16 µM, first compound 0.000949 µM): 6.9%
viability, T/C (second compound 3.16 µM, first compound 0.003 µM): 6.41%
viability, T/C (second compound 3.16 µM, first compound 0.00949 µM): 6.23%
viability, T/C (second compound 3.16 µM, first compound 0.03 µM): 6.27%
viability, T/C (second compound 3.16 µM, first compound 0.0949 µM): 5.66%
viability, T/C (second compound 3.16 µM, first compound 0.3 µM): 4.09%
viability, T/C (second compound 10 µM, first compound 0.000949 µM): 2.35%
viability, T/C (second compound 10 µM, first compound 0.003 µM): 1.98%
viability, T/C (second compound 10 µM, first compound 0.00949 µM): 1.72%
viability, T/C (second compound 10 µM, first compound 0.03 µM): 2.34%
viability, T/C (second compound 10 µM, first compound 0.0949 µM): 2.25%
viability, T/C (second compound 10 µM, first compound 0.3 µM): 1.2%

SMILES: CNC(=O)c1ccc(Nc2nc(OC3CCCC3)c3c(-c4ccc5nc(C)oc5c4)c[nH]c3n2)c(OC)c1
viability, T/C (compound 1 µM): 69.1% [middle of 12 runs]
viability, T/C (compound 3.16 µM): 61% [middle of 12 runs]
viability, T/C (compound 10 µM): 55.9% [middle of 12 runs]
IC50 (compound alone, run of 08/01/2023): > 10000 nM and 2630 nM

Now from value to compound, other results behind:

IC50 [1]: 84.9 nM
IC50 [2]: 115 nM
IC50 [3]: 77.1 nM
IC50 [4]: 56.7 nM
IC50 [5]: 32.1 nM
IC50 [6]: < 31.6 nM
SMILES: Nc1ccn(C2OC(CO)C(O)C2(F)F)c(=O)n1 (centres undefined) + CNC(=O)c1ccc(Nc2nc(OC3CCCC3)c3c(-c4ccc5nc(C)oc5c4)c[nH]c3n2)c(OC)c1
viability, T/C [7]: 91.5%
viability, T/C [8]: 42.9%
viability, T/C [9]: 21.2%
viability, T/C [10]: 12.3%
viability, T/C [11]: 9.35%
viability, T/C [12]: 9.34%
viability, T/C [13]: 91.1%
viability, T/C [14]: 53.3%
viability, T/C [15]: 26.7%
viability, T/C [16]: 15.5%
viability, T/C [17]: 12.8%
viability, T/C [18]: 10%
viability, T/C [19]: 78%
viability, T/C [20]: 40.5%
viability, T/C [21]: 25.7%
viability, T/C [22]: 14.8%
viability, T/C [23]: 12.8%
viability, T/C [24]: 8.22%
viability, T/C [25]: 62.8%
viability, T/C [26]: 37.8%
viability, T/C [27]: 19.3%
viability, T/C [28]: 11.9%
viability, T/C [29]: 9.22%
viability, T/C [30]: 6.78%
viability, T/C [31]: 50.1%
viability, T/C [32]: 36.2%
viability, T/C [33]: 16.3%
viability, T/C [34]: 10.7%
viability, T/C [35]: 7.99%
viability, T/C [36]: 6.76%
viability, T/C [37]: 45.8%
viability, T/C [38]: 34.7%
viability, T/C [39]: 19.7%
viability, T/C [40]: 9.76%
viability, T/C [41]: 8.5%
viability, T/C [42]: 7.44%

IC50 (curve of compound): 2.48 nM and 4.67 nM
SMILES: CC(C)CC(NC(=O)C(Cc1ccccc1)NC(=O)c1cnccn1)B(O)O (centres undefined)
viability, T/C (compound 0.000949 µM): 99.7% and 88.2%
viability, T/C (compound 0.003 µM): 40% and 80.3%
viability, T/C (compound 0.00949 µM): 1.73% and 1.58%
viability, T/C (compound 0.03 µM): 0.47% and 0.59%
viability, T/C (compound 0.0949 µM): 0.33% and 0.52%
viability, T/C (compound 0.3 µM): 0.18% and 0.32%

IC50 (curve of compound): 5740 nM and 6430 nM
SMILES: COC1C=CCC(C)C(C)S(=O)(=O)NC(=O)c2ccc3c(c2)N(CC2CCC21)CC1(CCCc2cc(Cl)ccc21)CO3 (centres undefined)
viability, T/C (compound 0.0316 µM): 91.1% and 108%
viability, T/C (compound 0.1 µM): 69.8% and 78.5%
viability, T/C (compound 0.316 µM): 82.5% and 70.2%
viability, T/C (compound 1 µM): 92.6% and 93.4%
viability, T/C (compound 3.16 µM): 82.5% and 81.2%
viability, T/C (compound 10 µM): 19.6% and 30.2%
